From patent US9244346B2, “Negative-type photosensitive resin composition, pattern forming method, cured film, insulating film, color filter, and display device” (TOKYO OHKA KOGYO CO., LTD., priority 2011, dated 2016)

Legend:
[1] = wavelength (λmax) at absorption spectrum peak and gram absorption coefficient at λmax; assay type: physicochemical; settings: for λmax: wavelength at absorption spectrum peak
[2] = solubility to propylene glycol monomethyl ether acetate (PM) and cyclohexanone (AN); settings: for Solubility to Solvent AN: cyclohexanone; for Solubility to Solvent PM: propylene glycol monomethyl ether acetate

Structure (SMILES)	Gram Absorption Coefficient at λmax [1]	λmax [1] [nm]	Solubility to Solvent AN [2] [mass %]	Solubility to Solvent PM [2] [mass %]
COc1ccccc1/C=C/C(=O)N1CCCCC1 [Comparative Compound 2, reference compound]	76	275	<1	<1
CCO[Si](C)(CCCN)OCC [Comparative Compound 6, reference compound]	143	212	>50	>50
CCN(CC)C(=O)/C=C/c1ccc(OC)cc1 [Compound 1]	90	309	>50	>50
COc1ccc(/C=C/C(=O)Nc2ccccc2)cc1 [Compound 2]	117	317	>50	>50
COc1ccc(/C=C/C(=O)n2ccnc2)cc1 [Compound 3]	81	293	>50	>50
COc1ccc(/C=C/C(=O)N2CCOCC2)cc1 [Compound 4]	79	310		
COc1ccc(/C=C/C(=O)n2ccnc2)c([N+](=O)[O-])c1 [Compound 5]	121	332		
COc1ccc(/C=C/C(=O)n2ccnc2)cc1[N+](=O)[O-] [Compound 6]	86	344		
COc1ccc(/C=C(\C)C(=O)n2ccnc2)c([N+](=O)[O-])c1 [Compound 7]	137	339	>50	>50
COc1ccc(/C=C(\C)C(=O)n2ccnc2)cc1[N+](=O)[O-] [Compound 8]	98	351		
CCN(CC)C(=O)/C=C/c1ccc(OC)cc1[N+](=O)[O-] [Compound 9]	102	342	>50	>50
CCN(CC)C(=O)/C=C/c1ccc(OC)c([N+](=O)[O-])c1 [Compound 10]	119	354	>50	>50
CCN(CC)C(=O)/C(C)=C/c1ccc(OC)cc1[N+](=O)[O-] [Compound 11]	107	349	>50	>50
CCN(CC)C(=O)/C(C)=C/c1ccc(OC)c([N+](=O)[O-])c1 [Compound 12]	127	361	>50	>50
COc1ccc(/C=C/C(=O)N2CCCCC2)c([N+](=O)[O-])c1 [Compound 13]	87	313	>50	>50
COc1ccc(/C=C/C(=O)N2CCCCC2)cc1[N+](=O)[O-] [Compound 14]	94	322	>50	>50
COc1ccc(/C=C(\C)C(=O)N2CCCCC2)c([N+](=O)[O-])c1 [Compound 15]	92	313	>50	>50
COc1ccc(/C=C(\C)C(=O)N2CCCCC2)cc1[N+](=O)[O-] [Compound 16]	105	323	>50	>50
COc1ccc(C=CC(=O)N2CCCCC2)cc1 [Compound 17]	74	281	>50	>50
COc1ccc(C=C(C)C(=O)n2ccnc2)cc1 [Compound 18]	84	301		
CCN(CC)C(=O)C(C)=Cc1ccc(OC)cc1 [Compound 19]	86	318	>50	>50
CCN(CC)C(=O)C=Cc1ccc(OC)cc1O [compound 7, reference compound]	72	304	>50	>50
COc1ccc(C=CC(=O)n2ccnc2)c(O)c1 [compound 9, reference compound]	65	290	>50	>50
